Where two headings read alike, the source gives them in different places.
Experiments:
[1] = system: gel-filtered human platelets; assay: Inhibition of aggregation of gel-filtered human platelets after ADP or thrombin stimulation; assay type: cell-based
Procedure: (§1) The compounds are tested in particular for their inhibitory action in blood platelet aggregation and the adhesion of fibrinogen to blood platelets. Gel-filtered blood platelets from human donor blood are used, which are activated with ADP or thrombin.
As a functional test, the inhibition of aggregation of gel-filtered human platelets by the compounds according to the invention is measured after ADP or thrombin stimulation. The IC50 value of the inhibition is given.

[2] = target: T1, fibrinogen receptor (glycoprotein IIb/IIIa) (Homo sapiens, UniProt P05106+P08514); assay: Inhibition of binding of 125I-fibrinogen to its receptor on intact, gel-filtered human platelets; details: inhibition of 125I-fibrinogen binding, stimulation with ADP (10 μM), read-out: Ki (μM), ADP-stimulated
T1 construct: endogenous in cells; host or cells: gel-filtered human platelets from donor blood, stimulated with ADP (10 µM)
Procedure: as §1
The inhibition of the binding of fibrinogen to its receptor (glycoprotein IIb/IIIa) by the compounds according to the invention is tested on intact, gel-filtered human platelets. The Ki value of the inhibition of binding of ^125 I-fibrinogen after stimulation with ADP (10 μM) is given.

[3] = Platelet, ADP stimulation, read-out: IC50 (μM), ADP-stimulated
[4] = Platelet, thrombin stimulation, read-out: IC50 (μM), Thrombin-stimulated
[5] = ADP stimulation, read-out: IC50 (μM), ADP-stimulated
[6] = thrombin stimulation, read-out: IC50 (μM), Thrombin-stimulated

T1 sequence (P08514 32-887 limits assumed): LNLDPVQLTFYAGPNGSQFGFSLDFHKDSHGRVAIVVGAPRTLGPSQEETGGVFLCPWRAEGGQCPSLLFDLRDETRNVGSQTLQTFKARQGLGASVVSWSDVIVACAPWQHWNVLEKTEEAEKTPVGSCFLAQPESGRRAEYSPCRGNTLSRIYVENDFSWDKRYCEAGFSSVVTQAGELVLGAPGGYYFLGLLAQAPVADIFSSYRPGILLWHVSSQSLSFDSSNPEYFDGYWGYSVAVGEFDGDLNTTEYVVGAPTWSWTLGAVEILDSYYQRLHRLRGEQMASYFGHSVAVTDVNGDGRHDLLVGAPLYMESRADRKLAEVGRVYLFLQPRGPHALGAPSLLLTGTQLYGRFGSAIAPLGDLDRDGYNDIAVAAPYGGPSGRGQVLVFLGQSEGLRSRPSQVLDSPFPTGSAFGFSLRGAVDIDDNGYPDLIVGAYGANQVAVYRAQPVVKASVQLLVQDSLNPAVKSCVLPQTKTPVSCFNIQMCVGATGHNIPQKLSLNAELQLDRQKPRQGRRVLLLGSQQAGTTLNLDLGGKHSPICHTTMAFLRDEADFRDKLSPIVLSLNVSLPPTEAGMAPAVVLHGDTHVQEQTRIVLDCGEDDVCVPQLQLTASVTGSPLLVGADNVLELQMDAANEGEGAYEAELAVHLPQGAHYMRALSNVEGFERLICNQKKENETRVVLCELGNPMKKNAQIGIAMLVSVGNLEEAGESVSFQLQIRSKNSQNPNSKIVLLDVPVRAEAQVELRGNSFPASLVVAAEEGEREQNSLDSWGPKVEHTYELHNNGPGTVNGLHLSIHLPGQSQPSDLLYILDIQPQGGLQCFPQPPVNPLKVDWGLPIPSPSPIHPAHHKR
T1 sequence (P08514 891-1039 partner limits assumed): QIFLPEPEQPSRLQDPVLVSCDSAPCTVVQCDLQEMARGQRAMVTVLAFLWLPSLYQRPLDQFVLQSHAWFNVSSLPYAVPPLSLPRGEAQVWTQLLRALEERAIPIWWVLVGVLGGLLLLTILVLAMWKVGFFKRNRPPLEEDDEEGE
T1 sequence (P05106 27-788): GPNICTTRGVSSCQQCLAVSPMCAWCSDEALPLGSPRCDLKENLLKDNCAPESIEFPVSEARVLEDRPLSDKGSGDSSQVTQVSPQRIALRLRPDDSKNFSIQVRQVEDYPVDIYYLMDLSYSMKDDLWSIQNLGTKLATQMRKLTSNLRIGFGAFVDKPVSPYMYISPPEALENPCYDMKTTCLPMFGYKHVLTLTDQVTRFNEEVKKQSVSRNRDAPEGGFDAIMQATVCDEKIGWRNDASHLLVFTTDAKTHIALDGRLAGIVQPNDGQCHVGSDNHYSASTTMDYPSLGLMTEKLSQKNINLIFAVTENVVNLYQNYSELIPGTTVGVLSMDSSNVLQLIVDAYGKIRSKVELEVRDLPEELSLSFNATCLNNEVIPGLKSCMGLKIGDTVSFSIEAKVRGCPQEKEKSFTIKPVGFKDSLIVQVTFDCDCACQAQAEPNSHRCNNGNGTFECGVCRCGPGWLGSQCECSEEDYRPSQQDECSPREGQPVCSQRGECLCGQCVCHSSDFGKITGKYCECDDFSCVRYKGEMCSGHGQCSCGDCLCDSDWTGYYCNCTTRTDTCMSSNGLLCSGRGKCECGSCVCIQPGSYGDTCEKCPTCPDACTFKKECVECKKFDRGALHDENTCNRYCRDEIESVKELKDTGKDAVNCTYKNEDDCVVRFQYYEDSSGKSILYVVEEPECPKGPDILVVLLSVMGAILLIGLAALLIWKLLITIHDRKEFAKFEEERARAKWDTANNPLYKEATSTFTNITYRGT

IC50 [1, 3] [µM] | IC50 [1, 4] [µM] | Ki [2] [µM] | SMILES | IC50 [1, 5] [µM] | IC50 [1, 6] [µM]
1.5 | 2 | 2.5 | N=C(N)NCCC[C@@H]1NC(=O)N(CC(=O)N[C@@H](CC(=O)O)C(=O)N[C@@H](Cc2ccccc2)C(=O)NCCCCN)C1=O [Example 1, (5-(S)-(3-Guanidinopropyl)-2,4-dioxoimidazolidin-3-yl)acetyl-L-aspartyl-L-phenylalanine (4-aminobutyl) amide acetate] | – | –
3 | 3.5 | 2.44 | N=C(N)NCCC[C@@H]1NC(=O)N(CC(=O)N[C@@H](CC(=O)O)C(=O)N[C@@H](Cc2ccccc2)C(=O)NCCCCCCN)C1=O [Example 2, (5-(S)-(3-Guanidinopropyl)-2,4-dioxoimidazolidin-3-yl)acetyl-L-aspartyl-L-phenylalanine (6-aminohexyl) amide acetate] | – | –
5 | 3 | 3.21 | N=C(N)NCCC[C@@H]1NC(=O)N(CC(=O)N[C@@H](CC(=O)O)C(=O)N[C@@H](Cc2ccccc2)C(=O)NCCCCCCCCN)C1=O [Example 3, (5-(S)-(3-Guanidinopropyl)-2,4-dioxoimidazolidin-3-yl)acetyl-L-aspartyl-L-phenylalanine (8-aminooctyl) amide acetate] | – | –
– | – | 0.17 | N=C(N)c1ccc(CC2NC(=O)N(CC(=O)N[C@@H](CC(=O)O)C(=O)N[C@@H](CCCCN)C(=O)NCCCCN)C2=O)cc1 (stereo partly drawn) [Example 7, (5-(R,S)-(4-Formamidino-benzyl)-2,4-dioxoimidazolidin-3-yl)acetyl-L-aspartyl-L-lysine (4-aminobutyl) amide] | 0.25 | 0.6

SMILES | IC50 [1, 3] [µM] | IC50 [1, 4] [µM] | Ki [2] [µM] | IC50 [1, 5] [µM] | IC50 [1, 6] [µM]
N=C(N)c1ccc(CC2NC(=O)N(CC(=O)N[C@@H](CC(=O)O)C(=O)N[C@@H](Cc3ccccc3)C(=O)NCCCCN)C2=O)cc1 (stereo partly drawn) [Example 4, (5-(R,S)-(4-Formamidinobenzyl)-2,4-dioxoimidazolidin-3-yl)acetyl-L-aspartyl-L-phenylalanine (4-aminobutyl) amide acetate] | – | – | 0.32 | 0.45 | 1

— patent US5397796A, “2,4-dioxoimidazolidine compounds and compositions, and processes for administering same” (Cassella AG, priority 1992, dated 1995)
